According to patent publication US12264156B2, “Compounds and pharmaceutical compositions thereof for the treatment of diseases” (GALAPAGOS NV, priority 2018, dated 2025):

Tests used:
SIK1 = molecular target: T1, SIK1 (Homo sapiens, UniProt P57059); assay: ADP-Glo kinase assay, SIK1; format: biochemical; details: ADP-Glo SIK kinase assay
T1 construct: purchased Carna Biosciences 02-131
How it was run: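 Enzyme–substrate mix was started with ATP and incubated 120 min at RT. ADP formed was quantified by ADP-Glo: 40 min ATP depletion, then 30 min detection reagent converting ADP to ATP for luciferase luminescence, which rises with kinase activity. Controls: 1% DMSO and 10 μM staurosporine (final).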

SIK2 = molecular target: T2, SIK2 (Homo sapiens, UniProt Q9H0K1); assay: ADP-Glo kinase assay, SIK2; format: biochemical; details: ADP-Glo SIK kinase assay
T2 construct: purchased ThermoFisher Scientific PV4792
How it was run: (§1)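 ADP-Glo, RT throughout. Enz/substrate + ATP, 120 min; ADP-Glo reagent 40 min (ATP depletion); detection reagent 30 min; luminescence read. Neg ctrl 1% DMSO, pos ctrl 10 μM staurosporine, final concs.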

SIK3 = molecular target: T3, SIK3 (Homo sapiens, UniProt Q9Y2K2); assay: ADP-Glo kinase assay, SIK3; format: biochemical; details: ADP-Glo SIK kinase assay
T3 construct: purchased SignalChem S12-11G-100
How it was run: as §1

[1] = test system: LPS triggered IL-10 secretion in monocyte-derived macrophages (MdM); assay: MdM assay: LPS-triggered IL-10 (ELISA); format: cell-based, human; details: LPS 200 ng/mL, supernatant after 2 h, maximal fold change vs LPS only
How it was run: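 Human CD14+ monocytes differentiated 10 days with 100 ng/mL rhM-CSF into macrophages. Compound preincubated 1 h at 37 °C (0.2% DMSO), then LPS 200 ng/mL. IL-10 in supernatant after 2 h measured by sandwich ELISA.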

T3 sequence (Q9Y2K2 whole entry): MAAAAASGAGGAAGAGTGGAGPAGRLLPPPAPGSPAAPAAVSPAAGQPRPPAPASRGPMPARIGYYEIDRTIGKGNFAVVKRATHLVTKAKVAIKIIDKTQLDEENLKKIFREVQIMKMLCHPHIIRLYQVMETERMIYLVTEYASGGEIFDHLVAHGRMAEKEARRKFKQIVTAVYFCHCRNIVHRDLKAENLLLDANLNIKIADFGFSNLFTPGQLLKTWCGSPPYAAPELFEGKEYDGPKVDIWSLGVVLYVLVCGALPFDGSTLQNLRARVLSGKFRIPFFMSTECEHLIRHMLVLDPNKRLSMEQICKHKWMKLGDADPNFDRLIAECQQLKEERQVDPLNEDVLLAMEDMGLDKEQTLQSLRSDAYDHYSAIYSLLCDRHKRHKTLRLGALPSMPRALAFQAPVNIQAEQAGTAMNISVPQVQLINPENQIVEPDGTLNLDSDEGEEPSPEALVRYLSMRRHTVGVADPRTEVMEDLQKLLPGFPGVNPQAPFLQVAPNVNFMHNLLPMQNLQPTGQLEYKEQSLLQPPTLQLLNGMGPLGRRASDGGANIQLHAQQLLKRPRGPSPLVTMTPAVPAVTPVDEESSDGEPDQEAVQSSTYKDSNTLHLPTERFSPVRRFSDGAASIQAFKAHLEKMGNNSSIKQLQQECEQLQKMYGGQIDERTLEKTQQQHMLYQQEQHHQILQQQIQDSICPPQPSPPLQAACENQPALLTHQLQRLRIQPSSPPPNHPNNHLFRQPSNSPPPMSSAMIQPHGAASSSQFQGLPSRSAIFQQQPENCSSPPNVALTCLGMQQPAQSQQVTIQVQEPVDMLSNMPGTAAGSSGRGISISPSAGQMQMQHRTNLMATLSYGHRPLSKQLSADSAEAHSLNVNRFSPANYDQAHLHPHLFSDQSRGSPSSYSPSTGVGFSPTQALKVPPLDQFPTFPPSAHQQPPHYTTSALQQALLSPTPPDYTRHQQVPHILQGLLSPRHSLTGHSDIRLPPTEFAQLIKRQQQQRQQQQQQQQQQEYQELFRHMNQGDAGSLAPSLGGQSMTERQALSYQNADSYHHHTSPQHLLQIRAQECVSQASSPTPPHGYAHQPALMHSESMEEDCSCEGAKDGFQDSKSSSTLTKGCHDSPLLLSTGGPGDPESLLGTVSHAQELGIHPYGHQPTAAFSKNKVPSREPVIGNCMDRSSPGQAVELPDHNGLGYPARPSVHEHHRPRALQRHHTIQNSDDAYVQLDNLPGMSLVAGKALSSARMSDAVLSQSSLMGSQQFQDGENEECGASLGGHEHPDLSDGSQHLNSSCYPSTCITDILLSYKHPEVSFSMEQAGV
T2 sequence (Q9H0K1 whole entry): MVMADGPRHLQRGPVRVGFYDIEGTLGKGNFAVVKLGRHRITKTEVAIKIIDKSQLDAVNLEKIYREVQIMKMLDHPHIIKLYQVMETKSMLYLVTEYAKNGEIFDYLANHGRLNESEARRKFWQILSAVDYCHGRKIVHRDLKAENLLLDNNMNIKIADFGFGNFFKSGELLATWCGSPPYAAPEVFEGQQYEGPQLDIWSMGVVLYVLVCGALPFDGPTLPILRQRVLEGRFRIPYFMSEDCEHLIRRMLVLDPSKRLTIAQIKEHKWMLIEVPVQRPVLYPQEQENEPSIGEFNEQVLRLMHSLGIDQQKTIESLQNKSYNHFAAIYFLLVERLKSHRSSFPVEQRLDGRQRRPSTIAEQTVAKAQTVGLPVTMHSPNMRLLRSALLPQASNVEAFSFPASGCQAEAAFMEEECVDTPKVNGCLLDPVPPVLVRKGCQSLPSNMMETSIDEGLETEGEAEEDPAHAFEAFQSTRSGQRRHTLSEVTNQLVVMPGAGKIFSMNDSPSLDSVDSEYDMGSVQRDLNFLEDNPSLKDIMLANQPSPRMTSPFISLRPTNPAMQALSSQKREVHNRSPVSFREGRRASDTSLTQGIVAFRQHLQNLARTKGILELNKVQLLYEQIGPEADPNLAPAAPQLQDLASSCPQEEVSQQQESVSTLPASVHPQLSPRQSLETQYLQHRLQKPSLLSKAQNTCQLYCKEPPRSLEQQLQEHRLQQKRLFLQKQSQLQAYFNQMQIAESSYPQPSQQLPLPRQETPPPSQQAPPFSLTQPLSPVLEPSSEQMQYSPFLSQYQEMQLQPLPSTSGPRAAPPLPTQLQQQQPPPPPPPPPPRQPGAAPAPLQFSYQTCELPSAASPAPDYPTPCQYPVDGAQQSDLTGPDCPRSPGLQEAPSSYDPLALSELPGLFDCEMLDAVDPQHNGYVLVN
T1 sequence (P57059 whole entry): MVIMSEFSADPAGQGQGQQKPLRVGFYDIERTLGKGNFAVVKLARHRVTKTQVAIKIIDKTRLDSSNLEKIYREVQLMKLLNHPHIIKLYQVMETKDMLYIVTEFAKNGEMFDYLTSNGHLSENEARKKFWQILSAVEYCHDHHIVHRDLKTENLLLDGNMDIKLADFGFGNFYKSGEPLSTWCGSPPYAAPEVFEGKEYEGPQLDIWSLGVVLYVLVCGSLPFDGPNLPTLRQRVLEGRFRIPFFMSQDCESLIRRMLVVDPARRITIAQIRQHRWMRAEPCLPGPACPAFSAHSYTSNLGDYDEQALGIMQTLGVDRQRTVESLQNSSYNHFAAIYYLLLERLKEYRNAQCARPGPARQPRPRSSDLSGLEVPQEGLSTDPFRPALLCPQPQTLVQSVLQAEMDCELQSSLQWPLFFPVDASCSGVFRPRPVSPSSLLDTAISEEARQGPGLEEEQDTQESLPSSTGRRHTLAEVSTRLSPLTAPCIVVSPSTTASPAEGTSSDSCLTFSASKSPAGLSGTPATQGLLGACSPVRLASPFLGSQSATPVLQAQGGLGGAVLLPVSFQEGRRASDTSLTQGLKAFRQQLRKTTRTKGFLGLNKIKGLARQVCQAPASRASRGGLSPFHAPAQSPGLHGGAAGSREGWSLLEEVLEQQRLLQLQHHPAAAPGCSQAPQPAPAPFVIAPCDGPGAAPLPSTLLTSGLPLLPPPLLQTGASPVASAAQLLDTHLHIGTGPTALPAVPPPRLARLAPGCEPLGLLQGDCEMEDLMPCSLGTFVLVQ

Q: Which results are given for `COc1cc(-c2cnc3cc(OCCN4CCOCC4)ccn23)cc2c1C(=O)N(CC(F)F)CC2` [compound 218, 2-(2,2-difluoroethyl)-8-methoxy-6-[7-(2-morpholinoethoxy)imidazo [1,2-a]pyridin-3-yl]-3,4-dihydroisoquinolin-1-one]?
A: IC50 (SIK1): 100 to 500 nM; IC50 (SIK2): 0.01 to 10 nM; IC50 (SIK3): 0.01 to 10 nM; IL-10 FCmax median [1]: ++ (>1.5-4.5)

Q: For `COc1cc(-c2cnc3cc(OCCCN4CCNCC4)ccn23)cc(OC(F)F)c1C(=O)NC1CC1` [compound 278, N-cyclopropyl-2-(difluoromethoxy)-6-methoxy-4-[7-(3-piperazin-1-ylpropoxy)imidazo[1,2-a]pyridin-3-yl]benzamide], which IC50 (SIK1) is on record?
A: 0.01 to 10 nM

Q: And the IC50 (SIK2)?
A: 0.01 to 10 nM

Q: What about the IC50 (SIK3) of the same compound?
A: 0.01 to 10 nM

Q: What about the “IL-10 FCmax median” value [1] of the same compound?
A: ++ (>1.5-4.5)

Q: `COc1cc(-c2cnc3cc(OCC4CN(C)C4)ccn23)cc2c1C(=O)N(CC(F)(F)F)CC2` [compound 39, 8-methoxy-6-[7-[(1-methylazetidin-3-yl)methoxy]imidazo[1,2-a]pyridin-3-yl]-2-(2,2,2-trifluoroethyl)-3,4-dihydro isoquinolin-1-one] was tested. Which IC50 (SIK1) did it give?
A: 100 to 500 nM

Q: And the IC50 (SIK2)?
A: 0.01 to 10 nM

Q: What about the IC50 (SIK3) of the same compound?
A: 0.01 to 10 nM

Q: What about the “IL-10 FCmax median” value [1] of the same compound?
A: ++ (>1.5-4.5)
